Results reported in patent US10017535B2, “Amphiphilic compounds with neuroprotective properties” (USTAV ORGANICKE CHEMIE A BIOCHEMIE AV CR, v.v.i., priority 2014, dated 2018).

Experiments:
[1] = system: laboratory mice, strain CD-1; test: Open field test (locomotor activity, sedative effect); for Open Field Test No Evidence of Hyperlocomotion: key: −: the desired effect was not observed; −/+: the desired effect was insufficient; +: the desired effect was observed; for Sedative Effect The Rapid Onset of Sedation at a Dose of 100 mg/kg: key: −: the desired effect was not observed; −/+: the desired effect was insufficient; +: the desired effect was observed; assay type: in vivo; settings: for pathway in open field: dose 10 and 100 mg/kg, vs intact mice; for locomotor activity over time: higher dose of 10 resp. 100 mg/kg; for Open Field Test No Evidence of Hyperlocomotion / Sedative Effect The Rapid Onset of Sedation at a Dose of 100 mg/kg: intraperitoneally; for Open Field Test No Evidence of Hyperlocomotion: 0.1-100 mg/kg; for hyperlocomotion in open field: lower doses (below 10 mg/kg)
Description: (§1) In the Experimental Part 1 were used adults (30-35 g) male laboratory mice, strain CD-1 from Velaz facility, Czech Republic. Mice were housed in plastic boxes with a 12-hour light cycle (lights on at 7:00 pm). Mice had free access to food and water.
Amphiphilic steroid compounds were dissolved in a solution of 3 g (2-hydroxypropyl)-β-cyclodextrin (CDX, Sigma-Aldrich) and 157 mg of citric acid ([…], Sigma-Aldrich) in 30 ml of distilled water, the pH was adjusted to 7.4 using sodium hydroxide (NaOH, Sigma-Aldrich). Thus there were prepared solutions of the four steroids for application rates of 0.1, 1, 10 and 100 mg/kg.
The efficacy of the studied compounds was compared to known NMDA antagonist is memantine (Sigma-Aldrich) at a dose of 5 mg/kg in rats, ketamine (Vétoquinol) at 10 mg/kg and dizocilpine (MK-801) (Sigma-Aldrich) at a dose of 0.3 mg/kg in mice. These three compounds were dissolved in saline (B Braun).
The substances at dose 0.1-100 mg/kg were administered before the test to mice intraperitoneally. As controls were used intact mice and mice that received CDX solution. Also, MK-801 (0.3 mg/kg) was used for comparison of effects of noncompetitive antagonist of NMDA receptors. From the experiment was evaluated overall track anywhere in the arena as an indicator of locomotor activity. In addition, it was judged a ten-minute segments track during each experiment. Based on these values, it was possible to determine the latency time of onset of action and changes in locomotor activity over time.
In this arrangement, the sedative effect of the studied compounds at the highest dose was evaluated. […] Over time was monitored locomotor activity and possible changes characterized by tremor, ataxia, restlessness, or sedation or general anesthesia (absence of response to stimuli, decreased muscle tone).

[2] = system: laboratory mice, strain CD-1; test: Passive avoidance test (aversive motivated memory); assay type: in vivo; note: key: −: the desired effect was not observed; −/+: the desired effect was insufficient; +: the desired effect was observed
Description: as §1
Aversive motivated memory test was evaluated on the basis of latency input into the preferred, but unpleasant sensation associated with delivery device.

[3] = system: NMDA lesion of the dorsal hippocampus in rats; test: Active allothetic place avoidance (AAPA) after bilateral excitotoxic NMDA lesion of dorsal hippocampus; assay type: in vivo, rat Long-Evans strain; settings: for NMDA lession Improvement in Cognition in AAPA after NMDA Lession: 1 mg/kg after NMDA lesion
Description: In the Experimental Part 2 were used adult (3 months old, 300-400 g) male rat Long-Evans strain. The animals come from herds Institute of Physiology ASCR. The rats were housed in clear plastic boxes with the same light cycle as in mice. Animals had free access to food and water. All experiments were carried out in the light of clay. All experiments were carried out in accordance with the Law on protection of animals against cruelty.
The anesthetized rats were used in operations isoflurane (3.5%, Baxter). To recall excitotoxic lesion of the dorsal hippocampus was applied 0.05 mol·l^−1 solution of NMDA (Sigma-Aldrich) in 0.4 mol·l^−1 phosphate buffer solution prepared by mixing 356 g Na2HPO4.12H2O (Mw358.14) in 4.2 l of distilled water and a solution of 62.4 g NaHPO4. 2H2O (Mw156.01) in 0.8 l of distilled water. The pH of the resulting solution of NMDA was adjusted to 7.4 with NaOH.
In this experiment, the neuroprotective effects were evaluated for amphiphilic steroid compounds. The procedure was performed according to Neuropharmacology 61, 61-68 (2011)
The rats were randomly divided into eleven groups. The control group included operated animals, which were injected by phosphate buffer […] into the hippocampus. In the second group, the animals had NMDA lesions of the hippocampus. The animals of the third group were applied clinically used NMDA antagonist memantine at a dose of 5 mg/kg after NMDA lesion. The other groups were administered the compounds at a dose of 1 mg/kg.
The test was performed in rotating arena with prohibited sector in the form of a circular sector (60°). If the rat entered the sector, its limbs received weak electrical impulse.
Test memory and spatial cognition in rats using AAPA was evaluated over four sessions, which are in healthy rats sufficient to achieve asymptotic level (Behay. Brain. Res. 189, 139-144 (2008)). To evaluate memory and spatial cognition was used data from the fourth session, and the number of entries into the forbidden sector and the maximum avoidance sector. […] After the experiment, the localization of the lesion was histologically verified.
Data were analyzed using the non parametric test of Maim Whitney criteria using the GraphPad. The difference was considered significant for p<0.05, for a non-significant tendency then for 0.05<p<0.075.

[4] = system: laboratory mice, strain CD-1; test: Forced swimming test (antidepressant effect); assay type: in vivo
Description: as §1
This assay was used to monitor the antidepressant effect. Animals float 6 minutes in acrylic cylinder in water at 24° C. A period of immobility is evaluated. The reduction is a manifestation of anti-depressant properties of drugs.

[5] = system: laboratory mice, strain CD-1; assay type: in vivo; settings: intraperitoneally, 1 mg/kg; note: key: −: the desired effect was not observed; −/+: the desired effect was insufficient; +: the desired effect was observed
Description: as §1
Thus there were prepared solutions of the four steroids for application rates of 0.1, 1, 10 and 100 mg/kg.
Laboratory mouse was chosen as a model organism for this experiment. The following experiments were performed as described in Front Behay. Neurosci.
The purpose of the primary behavioral testing was quickly determined the effect of compounds on CNS dependent functions and any signs of toxicity. A simplified modification Irwin test was selected with respect to the behavioral profile of NMDA receptor antagonists. Mice were tested individually. The study drug was administered intraperitoneally (Table 3) at a dose of 1 mg/kg. The control group consisted of individuals that received the CDX solution or saline.

[6] = 1 mg/kg after surgery, vs NMDA group

| Compound | signs of sleepiness and overall sedation ([1]; 10 resp. 100 mg/kg, between the 20th and 40th minute) | pathway in open field [1] | locomotor activity over time [1] | Open Field Test No Evidence of Hyperlocomotion [1] | Sedative Effect The Rapid Onset of Sedation at a Dose of 100 mg/kg [1] | hyperlocomotion in open field [1] | Passive Avoidance Test No Memory Violation [2] | maximum time avoiding the sector, fourth session of AAPA [3, 6] | number of entries into the forbidden sector, fourth session of AAPA [3, 6] | Forced Swimming Test Reduced Floating [4] | flotation (immobility) ([4]; 1 mg/kg) | latency to the first flotation ([4]; 1 mg/kg) | Behavioural Test No Evidence of Toxicity [5] | NMDA lession Improvement in Cognition in AAPA after NMDA Lession [3] |
| --- | --- | --- | --- | --- | --- | --- | --- | --- | --- | --- | --- | --- | --- | --- |
| C[C@@]12CCC[C@H]1[C@@H]1CC[C@@H]3C[C@H](OC(=O)[C@@H](N)CCC(=O)O)CC[C@]3(C)[C@H]1CC2 [Compound 130, (4S)-4-Amino-5-(((3R,5R,8S,9S,10S,13S,14S)-10,13-dimethylhexadecahydro-1H-cyclopenta[a]phenanthren-3-yl)oxy)-5-oxopentanoic acid] | most pronounced | significant reduction | significant decrease | + | + | not (unlike groups with dizocilpine) observed hyperlocomotion | + | significantly increased | significant reduction | + | significant decrease | longer latency | + |  |
| Pyridinium (3S,3aS,5bR,7aR,9R,11aS,11bS,13aR)-3,11a-dimethylhexadecahydro-1H,3H-naphtho[2′,1′:4,5]indeno[1,7a-c]furan-9-yl 9-sulfate [Compound 124] |  | significant reduction | significant decrease | + | − | not (unlike groups with dizocilpine) observed hyperlocomotion | −/+ |  |  | − |  |  | + | − |
| C[C@@]12CCCCC1[C@@H]1CC[C@@H]3C[C@H](OC(=O)[C@@H](N)CCC(=O)O)CC[C@]3(C)[C@H]1CC2 (stereo partly drawn) [Compound 106, (4S)-4-Amino-5-(((2R,4aS,4bS,6aS,10bS,12aR)-4a,6a-dimethyloctadekahydrochrysen-2-yl)oxy)-5-oxopentanoic acid] |  | significant reduction | significant decrease |  | − |  | + |  |  | − |  |  | + | − |
